Reference: PubChem BioAssay (NCI)
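48-hour exposure; five concentrations; linearly interpolated endpoints. Definition used: TGI = concentration required for complete inhibition of growth.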

Experiments:
Assay in all cases: NCI tumour cell line growth inhibition, 48 h
786-0 renal = system: 786-0 renal
A498 renal = system: A498 renal
A549 NSCLC = system: A549 NSCLC
ACHN renal = system: ACHN renal
CAKI-1 renal = system: CAKI-1 renal
CCRF-CEM leukemia = system: CCRF-CEM leukemia
COLO 205 colon = system: COLO 205 colon
DU-145 prostate = system: DU-145 prostate
EKVX NSCLC = system: EKVX NSCLC
HCT-116 colon = system: HCT-116 colon
HCT-15 colon = system: HCT-15 colon
HL-60(TB) leukemia = system: HL-60(TB) leukemia
HOP-62 NSCLC = system: HOP-62 NSCLC
HS 578T breast = system: HS 578T breast
HT29 colon = system: HT29 colon
IGROV1 ovarian = system: IGROV1 ovarian
K-562 leukemia = system: K-562 leukemia
KM12 colon = system: KM12 colon
LOX IMVI melanoma = system: LOX IMVI melanoma
M14 melanoma = system: M14 melanoma
MALME-3M melanoma = system: MALME-3M melanoma
MCF7 breast = system: MCF7 breast
MDA-MB-231 breast = system: MDA-MB-231 breast
MDA-MB-435 = system: MDA-MB-435
MDA-N = system: MDA-N
MOLT-4 leukemia = system: MOLT-4 leukemia
NCI-H226 lung = system: NCI-H226 lung
NCI-H23 lung = system: NCI-H23 lung
NCI-H460 lung = system: NCI-H460 lung
NCI-H522 lung = system: NCI-H522 lung
NCI/ADR-RES ovarian = system: NCI/ADR-RES ovarian
OVCAR-3 ovarian = system: OVCAR-3 ovarian
OVCAR-4 ovarian = system: OVCAR-4 ovarian
OVCAR-5 ovarian = system: OVCAR-5 ovarian
OVCAR-8 ovarian = system: OVCAR-8 ovarian
PC-3 prostate = system: PC-3 prostate
RPMI-8226 leukemia = system: RPMI-8226 leukemia
RXF 393 renal = system: RXF 393 renal
SF-268 CNS = system: SF-268 CNS
SF-295 CNS = system: SF-295 CNS
SF-539 CNS = system: SF-539 CNS
SK-MEL-2 melanoma = system: SK-MEL-2 melanoma
SK-MEL-28 melanoma = system: SK-MEL-28 melanoma
SK-MEL-5 melanoma = system: SK-MEL-5 melanoma
SK-OV-3 ovarian = system: SK-OV-3 ovarian
SN12C renal = system: SN12C renal
SNB-19 CNS = system: SNB-19 CNS
SNB-75 CNS = system: SNB-75 CNS
SR leukemia = system: SR leukemia
SW-620 colon = system: SW-620 colon
TK-10 renal = system: TK-10 renal
UACC-257 melanoma = system: UACC-257 melanoma
UACC-62 melanoma = system: UACC-62 melanoma
UO-31 renal = system: UO-31 renal

Measured: TGI

[O-][n+]1onc2c1CCC(=N\O)/C2=N/Nc1ccccc1
> 100 µM: all assays above
